The results in this text go back to patent US20100160356A1, “NOVEL CYCLOBUTYL COMPOUNDS AS KINASE INHIBITORS” (priority 2006, published 2010).

One series has as its target IGF1R (Homo sapiens, UniProt P08069). Nature of the series: Inhibition of IGF1R (flashplate assay). The format is biochemical. The note with it: flashplate method. The method, then: (§1) The test plates used are 96-well flashplate microtitre plates from Perkin Elmer (USA). The components of the kinase reaction are pipetted into the assay plate. The IGF1R kinase is incubated for 1 hr. with radioactively labelled ^33P-ATP in the presence and absence of test substances in a total volume of 100 μl at room temperature together with biotinylated poly(Glu, Tyr)4:1. The reaction is terminated using 25 μl of a 200 mM EDTA solution. After incubation for a further 30 min at room temperature, the supernatants are removed by suction, and the wells are washed three times with 100 μl of 0.9% NaCl solution each time. The radioactivity is measured using a Topcount scintillation counter (PerkinElmer, USA). IC50 values are calculated using the RS1 computer program.

The next series has as its target T1, IGF1 receptor (IGF1R) (Homo sapiens, UniProt P08069).
T1 construct: endogenous in cells; host or cells: MCF-7 or Calu-6
Nature of the series: Inhibition of IGF1R (ELISA assay), IGF1-stimulated autophosphorylation in cells. The format is cell-based. The note with it: human tumour cells stimulated with IGF1, read-out: IC50 IGF (ELISA). In short, it runs like this: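 Cells were preincubated 45 min with increasing compound concentrations, then stimulated 5 min with IGF1. Phospho-IGF1R in lysates was captured by a receptor-specific antibody and detected with anti-phosphotyrosine antibody via chemiluminescence ELISA or fluorescent LUMINEX read-out.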
(In general: An ELISA detects its analyte on a solid surface through an enzyme-linked reagent.)

In series [1] the target is T2, FAK (focal adhesion kinase) (Homo sapiens, UniProt Q05397).
T2 construct: endogenous in cells; host or cells: Calu-6 or HT-29
T2 sequence (Q05397 whole entry): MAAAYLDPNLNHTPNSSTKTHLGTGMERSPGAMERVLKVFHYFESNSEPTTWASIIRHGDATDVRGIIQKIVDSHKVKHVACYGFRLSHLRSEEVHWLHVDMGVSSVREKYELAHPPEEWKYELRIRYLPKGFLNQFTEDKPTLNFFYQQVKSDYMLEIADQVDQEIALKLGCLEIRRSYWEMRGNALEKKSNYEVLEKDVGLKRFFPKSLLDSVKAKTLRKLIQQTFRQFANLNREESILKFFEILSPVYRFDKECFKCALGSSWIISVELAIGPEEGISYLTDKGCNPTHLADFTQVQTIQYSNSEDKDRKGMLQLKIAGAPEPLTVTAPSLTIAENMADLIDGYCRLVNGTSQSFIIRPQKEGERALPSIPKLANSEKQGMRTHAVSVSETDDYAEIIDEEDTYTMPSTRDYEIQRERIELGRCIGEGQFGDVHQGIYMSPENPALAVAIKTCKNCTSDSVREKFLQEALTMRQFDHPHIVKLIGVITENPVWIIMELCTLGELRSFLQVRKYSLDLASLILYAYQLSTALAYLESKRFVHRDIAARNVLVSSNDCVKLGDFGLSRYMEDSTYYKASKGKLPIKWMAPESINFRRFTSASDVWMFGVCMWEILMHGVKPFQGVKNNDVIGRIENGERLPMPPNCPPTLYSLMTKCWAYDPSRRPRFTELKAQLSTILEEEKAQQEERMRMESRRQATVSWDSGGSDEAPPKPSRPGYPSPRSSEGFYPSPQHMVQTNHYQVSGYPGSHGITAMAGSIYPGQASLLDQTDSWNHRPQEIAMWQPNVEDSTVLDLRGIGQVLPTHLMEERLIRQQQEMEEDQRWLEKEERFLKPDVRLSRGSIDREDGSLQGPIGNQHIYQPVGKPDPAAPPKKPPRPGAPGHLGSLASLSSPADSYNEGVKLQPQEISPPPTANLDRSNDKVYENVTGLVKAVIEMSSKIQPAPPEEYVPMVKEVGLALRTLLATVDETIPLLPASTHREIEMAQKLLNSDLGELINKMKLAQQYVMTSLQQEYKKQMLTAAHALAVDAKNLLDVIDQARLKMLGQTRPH
Description: Inhibition of FAK (ELISA assay), FAK phosphorylation in cells. Type of series: cell-based. The note with it: human cells with FAK amplification. In short, it runs like this: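 Cells pretreated 45 min with increasing compound concentrations, with a reference inhibitor series as internal control. FAK from lysates captured by specific antibody on ELISA plate or LUMINEX beads; tyrosine phosphorylation detected with anti-phosphotyrosine antibody by chemiluminescence or fluorescence.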

The target in another series is T3, insulin receptor (InsR) (Homo sapiens, UniProt P06213).
T3 construct: endogenous in cells; host or cells: HepG2
Nature of the series: Inhibition of InsR (ELISA assay), insulin-stimulated autophosphorylation in cells. The format is cell-based. The note with it: human cells stimulated with insulin. The protocol:
Cultivated human cells which express the insulin receptor (InsR) (for example HepG2) are stimulated using human insulin, the natural ligand of InsR. The stimulation induces autophosphorylation of tyrosine residues in the cytoplasmatic InsR domain, which triggers signal transduction cascades, which initiate various biological reactions of the cells. The amount of phosphorylated InsR is determined by a receptor-specific capture ELISA or an analogous LUMINEX assay. The InsR from cell lysates is bound to a 96-well ELISA plate or LUMINEX beads by means of a specific antibody (“capturing”), and the tyrosine phosphorylation is detected using a biotin-labelled anti-phosphotyrosine antibody and a streptavidin-peroxidase conjugate by a chemiluminescence method or by means of a fluorescence-labelled anti-phosphotyrosine antibody. For determination of the activity of kinase inhibitors, cells are pretreated with increasing concentrations of these compounds for 45 min and subsequently stimulated using insulin for 5 min. As internal control, the biological activity of the ligand insulin is checked, and a concentration series of a reference inhibitor is measured.

A further series has as its target Met (Homo sapiens, UniProt P08581). Description: Inhibition of Met (flashplate method). The format is biochemical.
A further series concerns the target VEGF-2 (Homo sapiens, UniProt P35968). Nature of the series: Inhibition of VEGF-2 (flashplate assay). Type of series: biochemical. The note with it: flashplate method. In short, it runs like this:
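Kinase incubated 3 hr at room temperature with ^33P-ATP and biotinylated poly(Glu, Tyr)4:1, with or without test substance. Stopped with EDTA, wells washed after 30 min; incorporated radioactivity counted by scintillation and IC50 calculated.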

The target of another series is TIE2 (Homo sapiens, UniProt Q02763). Description: Inhibition of TIE2 (flashplate assay). The note with it: flashplate method. Type of series: biochemical. Put shortly:
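Radiometric flashplate kinase assay: TIE2 incubated 3 h at room temperature with ³³P-ATP and biotinylated poly(Glu,Tyr) 4:1, with or without test compound. Reaction stopped with EDTA, wells washed, incorporated radioactivity counted by scintillation; IC50 calculated from the data.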

The target of the next series is T4, SGK1 (Homo sapiens, UniProt O00141).
T4 sequence (O00141 1-431): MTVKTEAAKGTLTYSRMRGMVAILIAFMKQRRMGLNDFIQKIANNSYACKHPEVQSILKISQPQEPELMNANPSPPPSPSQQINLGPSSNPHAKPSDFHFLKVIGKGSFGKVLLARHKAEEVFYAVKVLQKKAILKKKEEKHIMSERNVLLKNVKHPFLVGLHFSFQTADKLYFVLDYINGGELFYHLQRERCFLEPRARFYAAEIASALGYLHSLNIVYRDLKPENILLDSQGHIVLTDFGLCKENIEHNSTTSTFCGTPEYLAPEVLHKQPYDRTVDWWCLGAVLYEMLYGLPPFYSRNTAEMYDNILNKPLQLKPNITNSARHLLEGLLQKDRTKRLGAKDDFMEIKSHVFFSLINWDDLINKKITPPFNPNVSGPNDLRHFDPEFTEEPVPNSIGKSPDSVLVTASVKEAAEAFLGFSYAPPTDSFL
Description: Inhibition of SGK1 (flashplate assay). Type of series: biochemical. The note with it: flashplate method. The protocol: as §1, with “are 384-well” for “are 96-well”, “The SGK1” for “The IGF1R”, “for 3” for “for 1”

The next series has as its target PDGFRβ (Homo sapiens, UniProt P09619). Nature of the series: Inhibition of PDGFRβ (flashplate assay). The note with it: flashplate method. Type of series: biochemical. Put shortly:
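Autophosphorylation of PDGFRβ kinase with ^33P-ATP, ± test compound, 3 hr at room temperature in flashplates. Stopped with EDTA, washed, and bound radioactivity counted by scintillation. IC50 calculated from the counts.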

Another series deals with T5, TGFβR1 (Homo sapiens, UniProt P36897).
T5 sequence (P36897 34-503): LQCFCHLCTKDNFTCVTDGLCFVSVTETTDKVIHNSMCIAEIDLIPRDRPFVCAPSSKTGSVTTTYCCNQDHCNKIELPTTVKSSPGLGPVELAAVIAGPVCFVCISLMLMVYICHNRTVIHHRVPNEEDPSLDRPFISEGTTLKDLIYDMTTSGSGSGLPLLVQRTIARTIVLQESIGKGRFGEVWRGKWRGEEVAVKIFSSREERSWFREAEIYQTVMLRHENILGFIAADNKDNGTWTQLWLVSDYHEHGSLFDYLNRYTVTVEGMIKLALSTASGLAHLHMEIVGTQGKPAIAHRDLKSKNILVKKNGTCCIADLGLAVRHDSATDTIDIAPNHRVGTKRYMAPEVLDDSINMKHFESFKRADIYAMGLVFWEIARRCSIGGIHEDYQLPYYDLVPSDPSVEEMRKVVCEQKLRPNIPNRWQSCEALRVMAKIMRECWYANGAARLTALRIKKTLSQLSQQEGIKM
Nature of the series: Inhibition of TGFβR1 (flashplate assay). The format is biochemical. The note with it: flashplate method. Put shortly:
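Kinase was incubated 45 min with 33P-ATP and biotinylated substrate, with or without test substances, then stopped with EDTA. Incorporated radioactivity was counted by scintillation in a flashplate format. IC50 values were calculated from the counts.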

Another series relates to CHK. Description: Inhibition of CHK (flashplate method). The format is biochemical.

Sequence of VEGF-2 (P35968 20-1356): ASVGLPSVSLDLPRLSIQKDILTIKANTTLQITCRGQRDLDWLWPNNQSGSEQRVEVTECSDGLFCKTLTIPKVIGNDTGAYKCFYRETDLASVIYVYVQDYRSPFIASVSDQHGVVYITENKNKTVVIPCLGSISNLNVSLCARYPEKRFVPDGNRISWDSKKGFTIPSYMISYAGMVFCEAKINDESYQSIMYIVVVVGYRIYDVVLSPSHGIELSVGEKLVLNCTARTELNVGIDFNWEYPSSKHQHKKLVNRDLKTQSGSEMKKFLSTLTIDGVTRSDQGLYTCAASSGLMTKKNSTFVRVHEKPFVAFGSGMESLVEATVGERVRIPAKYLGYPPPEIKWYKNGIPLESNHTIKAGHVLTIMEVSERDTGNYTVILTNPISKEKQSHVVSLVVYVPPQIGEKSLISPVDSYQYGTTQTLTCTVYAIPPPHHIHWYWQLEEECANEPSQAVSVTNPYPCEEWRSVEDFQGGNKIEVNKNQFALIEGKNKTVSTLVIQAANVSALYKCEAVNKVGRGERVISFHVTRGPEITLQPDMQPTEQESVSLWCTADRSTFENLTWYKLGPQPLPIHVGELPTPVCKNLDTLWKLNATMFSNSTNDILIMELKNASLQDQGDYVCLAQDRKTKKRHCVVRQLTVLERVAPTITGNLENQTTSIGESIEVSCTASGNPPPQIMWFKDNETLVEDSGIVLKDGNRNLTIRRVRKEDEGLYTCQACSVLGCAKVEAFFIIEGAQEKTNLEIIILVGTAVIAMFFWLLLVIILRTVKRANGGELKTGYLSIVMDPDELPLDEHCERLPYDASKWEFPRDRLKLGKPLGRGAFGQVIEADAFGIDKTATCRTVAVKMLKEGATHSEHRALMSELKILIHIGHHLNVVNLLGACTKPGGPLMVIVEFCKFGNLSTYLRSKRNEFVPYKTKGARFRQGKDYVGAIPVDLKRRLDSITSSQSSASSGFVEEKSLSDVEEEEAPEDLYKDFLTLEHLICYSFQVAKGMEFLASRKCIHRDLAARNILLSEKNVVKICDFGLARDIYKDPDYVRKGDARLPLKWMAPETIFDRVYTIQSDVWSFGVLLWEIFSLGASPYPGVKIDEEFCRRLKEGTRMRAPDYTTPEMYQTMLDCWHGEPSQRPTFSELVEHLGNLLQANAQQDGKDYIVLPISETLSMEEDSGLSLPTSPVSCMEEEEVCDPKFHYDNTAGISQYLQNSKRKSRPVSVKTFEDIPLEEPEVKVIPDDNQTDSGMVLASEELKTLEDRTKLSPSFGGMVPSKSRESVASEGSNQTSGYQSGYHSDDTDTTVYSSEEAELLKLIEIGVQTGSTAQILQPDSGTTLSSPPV
T1 sequence (P08069 31-1367): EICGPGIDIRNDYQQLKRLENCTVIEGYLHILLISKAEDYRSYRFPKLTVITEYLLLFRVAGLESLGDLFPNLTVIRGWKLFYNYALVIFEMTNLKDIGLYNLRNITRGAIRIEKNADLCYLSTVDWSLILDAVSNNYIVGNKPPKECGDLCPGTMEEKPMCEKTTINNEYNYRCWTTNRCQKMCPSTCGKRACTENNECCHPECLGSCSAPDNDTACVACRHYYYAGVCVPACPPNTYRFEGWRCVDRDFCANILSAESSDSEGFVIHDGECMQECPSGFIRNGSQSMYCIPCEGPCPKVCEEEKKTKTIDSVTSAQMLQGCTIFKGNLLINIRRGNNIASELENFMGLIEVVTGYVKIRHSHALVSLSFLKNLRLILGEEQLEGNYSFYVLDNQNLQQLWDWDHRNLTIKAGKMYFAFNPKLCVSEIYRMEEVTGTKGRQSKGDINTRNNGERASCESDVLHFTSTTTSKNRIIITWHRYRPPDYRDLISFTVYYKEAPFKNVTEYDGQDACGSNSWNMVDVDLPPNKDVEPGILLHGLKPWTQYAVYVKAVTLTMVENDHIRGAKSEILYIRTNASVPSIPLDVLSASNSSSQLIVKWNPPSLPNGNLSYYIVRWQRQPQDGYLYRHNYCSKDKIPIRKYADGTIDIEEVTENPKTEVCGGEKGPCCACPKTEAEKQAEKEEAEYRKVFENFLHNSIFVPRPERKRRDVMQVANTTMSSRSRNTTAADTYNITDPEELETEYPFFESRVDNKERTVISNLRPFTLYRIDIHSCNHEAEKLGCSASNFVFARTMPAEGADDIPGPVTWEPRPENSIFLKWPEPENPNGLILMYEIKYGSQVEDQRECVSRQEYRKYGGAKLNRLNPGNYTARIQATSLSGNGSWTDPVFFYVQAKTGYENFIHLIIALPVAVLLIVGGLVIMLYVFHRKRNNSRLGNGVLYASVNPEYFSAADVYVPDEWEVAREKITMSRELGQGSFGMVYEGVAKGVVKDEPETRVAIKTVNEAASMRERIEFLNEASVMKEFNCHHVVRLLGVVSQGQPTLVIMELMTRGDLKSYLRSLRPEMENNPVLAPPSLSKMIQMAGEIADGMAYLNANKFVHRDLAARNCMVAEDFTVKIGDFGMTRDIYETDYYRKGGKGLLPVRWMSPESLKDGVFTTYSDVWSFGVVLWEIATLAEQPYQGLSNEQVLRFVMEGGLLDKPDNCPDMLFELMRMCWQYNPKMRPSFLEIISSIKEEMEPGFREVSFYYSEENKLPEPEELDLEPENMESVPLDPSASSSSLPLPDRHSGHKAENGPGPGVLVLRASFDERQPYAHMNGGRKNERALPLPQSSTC
Sequence of IGF1R (P08069 31-1367, species assumed): as the sequence (P08069 31-1367) above
Sequence of TIE2 (Q02763 23-1124, species assumed): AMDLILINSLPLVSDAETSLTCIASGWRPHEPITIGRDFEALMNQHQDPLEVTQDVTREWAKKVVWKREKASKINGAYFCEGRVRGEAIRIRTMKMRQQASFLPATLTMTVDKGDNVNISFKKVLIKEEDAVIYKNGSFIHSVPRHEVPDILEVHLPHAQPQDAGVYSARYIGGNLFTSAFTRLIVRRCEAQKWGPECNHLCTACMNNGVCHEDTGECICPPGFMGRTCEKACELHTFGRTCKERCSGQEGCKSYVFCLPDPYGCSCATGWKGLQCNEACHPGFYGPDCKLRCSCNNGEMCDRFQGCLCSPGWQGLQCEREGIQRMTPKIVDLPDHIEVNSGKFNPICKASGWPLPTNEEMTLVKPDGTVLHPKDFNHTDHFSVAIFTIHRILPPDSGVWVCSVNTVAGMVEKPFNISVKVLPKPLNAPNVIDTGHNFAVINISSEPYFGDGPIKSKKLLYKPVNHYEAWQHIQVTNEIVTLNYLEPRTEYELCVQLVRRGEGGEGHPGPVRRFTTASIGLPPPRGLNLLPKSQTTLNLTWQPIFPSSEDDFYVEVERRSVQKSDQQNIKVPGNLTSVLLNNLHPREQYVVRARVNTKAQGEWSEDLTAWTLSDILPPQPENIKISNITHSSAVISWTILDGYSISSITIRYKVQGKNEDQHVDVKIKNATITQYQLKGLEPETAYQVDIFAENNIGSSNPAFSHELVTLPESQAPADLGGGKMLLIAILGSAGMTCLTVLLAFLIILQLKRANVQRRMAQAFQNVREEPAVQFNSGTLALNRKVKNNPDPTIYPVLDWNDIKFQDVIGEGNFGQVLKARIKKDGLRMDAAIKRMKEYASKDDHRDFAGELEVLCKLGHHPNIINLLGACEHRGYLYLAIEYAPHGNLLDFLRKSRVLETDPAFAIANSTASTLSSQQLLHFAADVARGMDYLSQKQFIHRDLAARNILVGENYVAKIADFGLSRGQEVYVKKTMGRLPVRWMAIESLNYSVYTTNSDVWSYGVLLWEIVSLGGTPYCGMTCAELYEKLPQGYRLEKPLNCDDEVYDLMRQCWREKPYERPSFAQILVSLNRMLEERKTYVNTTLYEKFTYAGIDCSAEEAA

Broadly, the IC50 is the midpoint of a concentration-inhibition curve. Take `C[Si](C)(COc1cccc(-c2cn(C3CC(CN)C3)c3ncnc(N)c23)c1)c1ccccc1` (centres unmarked) [Compound 8]: the half-maximal inhibitory concentration (IC50) against IGF1R turned out to be 320 nM; at IGF1 receptor (IGF1R), 810 nM; in series [1], 16000 nM; against insulin receptor (InsR), 9500 nM; against Met, 1100 nM.

With `C[Si](C)(C)COc1cccc(-c2cn(C3CC(CN)C3)c3ncnc(N)c23)c1` (centres unmarked) [Compound 9], the IC50 was 130 nM against IGF1R, 570 nM on IGF1 receptor (IGF1R), 14000 nM in series [1] and 5500 nM on insulin receptor (InsR).

The melting point is the temperature, or range, at which the solid turns liquid. `NCC1CC(n2cc(-c3cccc(NCc4ccccc4)c3)c3c(N)ncnc32)C1` (centres unmarked) [Compound 25] had a melting point of 204 to 206 °C. This compound also came in with an IC50 at IGF1R of 820 nM. The IC50 on IGF1 receptor (IGF1R) came out at 3000 nM. Also, the IC50 against VEGF-2 came out at 390 nM. The compound further registered an IC50 against TIE2 of 1500 nM. The compound also came in with a 50% inhibitory concentration (IC50) against SGK1 of 3600 nM. Also, the half-inhibitory concentration (IC50) against PDGFRβ was found to be 1200 nM. Moreover, it took 3700 nM to reach half-maximal inhibition at TGFβR1 (IC50).

On to `NCC1CC(n2cc(-c3ccco3)c3c(N)ncnc32)C1` (centres unmarked) [Compound 38], for which the IC50 at IGF1 receptor (IGF1R) was found to be 17000 nM; in series [1] it was 18000 nM; against VEGF-2, 2300 nM; on SGK1 it was 2600 nM; with CHK, 8800 nM.

As for `NCC1CC(n2cc(-c3cccs3)c3c(N)ncnc32)C1` (centres unmarked) [Compound 41], the half-maximal inhibitory concentration (IC50) against IGF1R is 5600 nM; on IGF1 receptor (IGF1R), 6200 nM; in [1] it was 3800 nM; at VEGF-2, 1200 nM; against TIE2, 4800 nM; on SGK1, 1600 nM. On TGFβR1, this compound returned an IC50 of 2700 nM.
